Several values for one entry are separate records, joined by “and”; a condition that tells them apart may be missing. Identical values can stand only once. Toxic doses and inconclusive results are not listed.
Test system: P388 leukemia ip, CD2F1 mice, survival T/C
Experiment: NCI In Vivo Anticancer Drug Screen. Data for tumor model P388 Leukemia (intraperitoneal) in CD2F1 (CDF1) mice
Details: endpoint: median survival time, higher = longer survival
How it was run: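 Mice carrying the transplanted tumor received test compound or vehicle. Survival was recorded in each group, and the value is the treated-group measurement divided by that of the vehicle-treated control group.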

[1] = dose: 50.0 mg/kg/injection, schedule: Q01DX005 (ip), vehicle: saline with Tween-80
[2] = dose: 100.0 mg/kg/injection, schedule: Q01DX005 (ip), vehicle: saline with Tween-80
[3] = dose: 200.0 mg/kg/injection, schedule: Q01DX005 (ip), vehicle: saline with Tween-80
[4] = dose: 25.0 mg/kg/injection, schedule: Q01DX009 (ip), vehicle: Klucel (hydroxypropylcellulose) (HPC)
[5] = dose: 50.0 mg/kg/injection, schedule: Q01DX009 (ip), vehicle: Klucel (hydroxypropylcellulose) (HPC)
[6] = dose: 100.0 mg/kg/injection, schedule: Q01DX009 (ip), vehicle: Klucel (hydroxypropylcellulose) (HPC)
[7] = dose: 50.0 mg/kg/injection, schedule: Q01DX009 (ip), vehicle: saline with Tween-80
[8] = dose: 200.0 mg/kg/injection, schedule: Q01DX009 (ip), vehicle: saline with Tween-80
[9] = dose: 50.0 mg/kg/injection, schedule: Q01DX005 (ip), vehicle: Klucel (hydroxypropylcellulose) (HPC)
[10] = dose: 100.0 mg/kg/injection, schedule: Q01DX005 (ip), vehicle: Klucel (hydroxypropylcellulose) (HPC)
[11] = dose: 200.0 mg/kg/injection, schedule: Q01DX005 (ip), vehicle: Klucel (hydroxypropylcellulose) (HPC)
[12] = dose: 60.0 mg/kg/injection, schedule: Q01DX005 (ip), vehicle: saline with Tween-80
[13] = dose: 12.5 mg/kg/injection, schedule: Q01DX009 (ip), vehicle: saline with Tween-80
[14] = dose: 25.0 mg/kg/injection, schedule: Q01DX009 (ip), vehicle: saline with Tween-80
[15] = dose: 100.0 mg/kg/injection, schedule: Q01DX009 (ip), vehicle: saline with Tween-80

`O=C(O)c1cccc(C(=O)O)c1Sc1ccc(Cl)cc1` was tested, and the T/C (dose: 100.0 mg/kg/injection, schedule: Q04DX002 (ip), vehicle: saline with Tween-80) was 100 % of control, the T/C (dose: 200.0 mg/kg/injection, schedule: Q04DX002 (ip), vehicle: saline with Tween-80) was 105 % of control and the T/C (dose: 400.0 mg/kg/injection, schedule: Q04DX002 (ip), vehicle: saline with Tween-80) was 100 % of control.
`CCCCN(CCCC)C(C)C(=O)c1ccc2cc(Br)c3ccccc3c2c1` (centres undefined) was tested, and the T/C (dose: 12.5 mg/kg/injection, schedule: Q01DX005 (ip), vehicle: saline with Tween-80) was 110 % of control, the T/C (dose: 25.0 mg/kg/injection, schedule: Q01DX005 (ip), vehicle: saline with Tween-80) was 101 % of control and the T/C [1] was 99 % of control and 100 % of control. The T/C [2] was 107 % of control and the T/C [3] was 119 % of control.
`Nc1nc(-c2ccncc2)cc(-c2cc(-c3ccncc3)nc(N)n2)n1` was tested, and the T/C (dose: 60.0 mg/kg/injection, schedule: Q01DX005 (ip), vehicle: saline) was 102 % of control and the T/C (dose: 120.0 mg/kg/injection, schedule: Q01DX005 (ip), vehicle: saline) was 96 % of control.
With `CC(=O)N(C)N(Cc1ccc(C#N)cc1)C(C)=O` the T/C [4] was 101 % of control, the T/C [5] was 98 % of control and the T/C [6] was 99 % of control. For the same molecule, the T/C (dose: 200.0 mg/kg/injection, schedule: Q01DX009 (ip), vehicle: Klucel (hydroxypropylcellulose) (HPC)) was 108 % of control and the T/C (dose: 400.0 mg/kg/injection, schedule: Q01DX009 (ip), vehicle: Klucel (hydroxypropylcellulose) (HPC)) was 98 % of control.
`CC(NC(=O)c1ccc(C(C[N+](=O)[O-])SCCC(=O)O)cc1)C(=O)O` (centres undefined) was tested, and the T/C (dose: 60.0 mg/kg/injection, schedule: Q01DX005 (ip), vehicle: saline + Tween-80 + alcohol) was 98 % of control, the T/C (dose: 120.0 mg/kg/injection, schedule: Q01DX005 (ip), vehicle: saline + Tween-80 + alcohol) was 99 % of control and the T/C (dose: 240.0 mg/kg/injection, schedule: Q01DX005 (ip), vehicle: saline + Tween-80 + alcohol) was 107 % of control.
For `O=c1c(Cl)c(Cl)oc(Cl)c1Cl`, the T/C [1] was 100 % of control and the T/C [2] was 98 % of control.
`O=P(O)(O)SP(=O)(O)O.[Ni]` was tested, and the T/C (dose: 12.5 mg/kg/injection, schedule: Q01DX001 (ip), vehicle: suspension in saline) was 102 % of control and 94 % of control, the T/C (dose: 25.0 mg/kg/injection, schedule: Q01DX001 (ip), vehicle: suspension in saline) was 99 % of control and 94 % of control and the T/C (dose: 50.0 mg/kg/injection, schedule: Q01DX001 (ip), vehicle: suspension in saline) was 122 % of control.
`O=[N+]([O-])c1cccn2nc(C3OC(CO)C(O)C3O)nc12` (centres undefined) was tested, and the T/C (dose: 6.25 mg/kg/injection, schedule: Q01DX009 (ip), vehicle: water) was 109 % of control, the T/C (dose: 12.5 mg/kg/injection, schedule: Q01DX009 (ip), vehicle: water) was 104 % of control and the T/C (dose: 25.0 mg/kg/injection, schedule: Q01DX009 (ip), vehicle: water) was 113 % of control. For the same molecule, the T/C (dose: 50.0 mg/kg/injection, schedule: Q01DX009 (ip), vehicle: water) was 98 % of control and the T/C (dose: 100.0 mg/kg/injection, schedule: Q01DX009 (ip), vehicle: water) was 109 % of control.
For `CCCCN(CCCC)CC(O)c1c(C)c2ccccc2c2ccccc12` (centres undefined), the T/C (dose: 9.0 mg/kg/injection, schedule: Q01DX009 (ip), vehicle: saline with Tween-80) was 100 % of control, the T/C (dose: 18.0 mg/kg/injection, schedule: Q01DX009 (ip), vehicle: saline with Tween-80) was 100 % of control and the T/C (dose: 36.0 mg/kg/injection, schedule: Q01DX009 (ip), vehicle: saline with Tween-80) was 100 % of control.
`CC(C)[N+](=C1O[B-](c2ccccc2)(c2ccccc2)O[B-]1(c1ccccc1)[C+]1CCCCC1)C(C)C` (centres undefined) was tested, and the T/C [1] was 102 % of control, the T/C [2] was 108 % of control and the T/C [3] was 116 % of control.
For `CC1=CC(O/C=C2\C(=O)OC3c4ccccc4CC23)OC1=O` (centres undefined), the T/C (dose: 50.0 mg/kg/injection, schedule: Q01DX009 (ip), vehicle: suspension in saline) was 101 % of control, the T/C (dose: 100.0 mg/kg/injection, schedule: Q01DX009 (ip), vehicle: suspension in saline) was 108 % of control and the T/C (dose: 200.0 mg/kg/injection, schedule: Q01DX009 (ip), vehicle: suspension in saline) was 92 % of control.
In the case of `CC(C)(C)NC(=S)N/N=C/c1cc(Cl)cc(Cl)c1O`, the T/C [7] is reported as 97 % of control and the T/C [8] is reported as 98 % of control.
For `CC(=O)N(CC1OC2OC(C)(C)OC2C2OC(C)(C)OC12)N=Nc1ccc([N+](=O)[O-])cc1` (centres undefined), the T/C [9] was 100 % of control, the T/C [10] was 89 % of control and the T/C [11] was 91 % of control.
For `CC1(C)C(=O)N(Br)C(=O)N1Br`, the T/C (dose: 12.5 mg/kg/injection, schedule: Q01DX009 (ip), vehicle: Klucel (hydroxypropylcellulose) (HPC)) was 101 % of control, the T/C [4] was 99 % of control and the T/C [5] was 99 % of control. For the same molecule, the T/C [6] was 90 % of control.
`O=[N+]([O-])c1ccc(N/N=C\c2c(Cl)n(-c3ccccc3)c3ccccc23)cc1` was tested, and the T/C (dose: 100.0 mg/kg/injection, schedule: Q04DX003 (ip), vehicle: saline with Tween-80) was 93 % of control, the T/C (dose: 200.0 mg/kg/injection, schedule: Q04DX003 (ip), vehicle: saline with Tween-80) was 90 % of control and the T/C (dose: 400.0 mg/kg/injection, schedule: Q01DX001 (ip), vehicle: saline) was 95 % of control. The T/C (dose: 400.0 mg/kg/injection, schedule: Q04DX003 (ip), vehicle: saline with Tween-80) was 91 % of control.
In the case of `C[N+]1=CN(S(=O)(=O)C2C=CC=CC=C2)CC1(C)C`, the T/C (dose: 100.0 mg/kg/injection, schedule: Q04DX003 (ip), vehicle: saline) is reported as 100 % of control, the T/C (dose: 200.0 mg/kg/injection, schedule: Q04DX003 (ip), vehicle: saline) is reported as 107 % of control and the T/C (dose: 400.0 mg/kg/injection, schedule: Q04DX003 (ip), vehicle: saline) is reported as 97 % of control.
In the case of `O=C(Nc1c(Cl)cccc1Cl)Oc1cccc2cccnc12`, the T/C (dose: 15.0 mg/kg/injection, schedule: Q01DX005 (ip), vehicle: saline with Tween-80) is reported as 97 % of control, the T/C (dose: 30.0 mg/kg/injection, schedule: Q01DX005 (ip), vehicle: saline with Tween-80) is reported as 107 % of control and the T/C [12] is reported as 100 % of control and 92 % of control.
In the case of `COC(=O)c1ccc(N=NN(C)CO)cc1`, the T/C [12] is reported as 97 % of control, the T/C (dose: 120.0 mg/kg/injection, schedule: Q01DX005 (ip), vehicle: saline with Tween-80) is reported as 108 % of control and the T/C (dose: 240.0 mg/kg/injection, schedule: Q01DX005 (ip), vehicle: saline with Tween-80) is reported as 115 % of control.
In the case of `CN(C)c1ccc(/C=C\C(=O)c2ccc(C(=O)/C=C/c3ccc(N(C)C)cc3)cc2)cc1`, the T/C [13] is reported as 99 % of control, the T/C [14] is reported as 96 % of control and the T/C [7] is reported as 90 % of control.
With `CCOC(=O)N1C(=O)C2C3CCC(C2C1=O)C1C2C(=O)N(C(=O)OCC)C(=O)C2C31` (centres undefined) the T/C [13] was 103 % of control, the T/C [14] was 104 % of control and 111 % of control and the T/C [7] was 115 % of control. The T/C [15] was 157 % of control and the T/C [8] was 222 % of control.
In the case of `O=C1OC(c2ccccc2)=N/C1=C\c1ccccc1`, the T/C [14] is reported as 95 % of control, the T/C [7] is reported as 100 % of control and the T/C [15] is reported as 100 % of control. The T/C [8] was 95 % of control.
With `NNC(=O)C(=O)NCc1ccco1` the T/C [13] was 88 % of control, the T/C [14] was 98 % of control and the T/C [7] was 95 % of control.
For `CN(/N=C\c1ccccc1)C(N)=S`, the T/C [9] was 105 % of control, the T/C [10] was 111 % of control and the T/C [11] was 101 % of control.
For `CCCc1n(O)c(C)c(C)[n+]1[O-]`, the T/C [7] was 91 % of control, the T/C [15] was 100 % of control and the T/C [8] was 104 % of control.
In the case of `Nc1ncc[n+]2c(COCCCl)[nH]nc12`, the T/C (dose: 100.0 mg/kg/injection, schedule: Q01DX001 (ip), vehicle: Klucel (hydroxypropylcellulose) (HPC)) is reported as 92 % of control and the T/C (dose: 200.0 mg/kg/injection, schedule: Q01DX001 (ip), vehicle: Klucel (hydroxypropylcellulose) (HPC)) is reported as 92 % of control.
`CN1N=C(C2=NN(C)C(=O)N(C)N2)NN(C)C1=O` was tested, and the T/C (dose: 12.5 mg/kg/injection, schedule: Q01DX005 (ip), vehicle: Klucel (hydroxypropylcellulose) (HPC)) was 101 % of control, the T/C (dose: 25.0 mg/kg/injection, schedule: Q01DX005 (ip), vehicle: Klucel (hydroxypropylcellulose) (HPC)) was 97 % of control and the T/C [9] was 104 % of control and 105 % of control.
For `COCn1cc(C(N)=O)c(=O)c2c(N)nc(SC)nc21`, the T/C (dose: 25.0 mg/kg/injection, schedule: Q04DX002 (ip), vehicle: saline with Tween-80) was 96 % of control.
With `CC1CCC(O)C23OC4C(OC(C)(C)C4C12C)C3=O` (centres undefined) (tested in a mixture with another compound) the T/C (dose: 50.0 mg/kg/injection, schedule: Q01DX009 (ip), vehicle: saline) was 96 % of control, the T/C (dose: 100.0 mg/kg/injection, schedule: Q01DX009 (ip), vehicle: saline) was 89 % of control and the T/C (dose: 200.0 mg/kg/injection, schedule: Q01DX009 (ip), vehicle: saline) was 94 % of control.

From PubChem BioAssay AID330 (DTP/NCI, 2004)
